Results: patent publication US8802597B2, “Herbicidal pyrimidines” (E I du Pont de Nemours and Company, priority 2003, dated 2014)
Values belong to the compound of their own block, whether it stands above or below them.

Columns and labels:
[1] = test system: barnyardgrass (Echinochloa crus-galli); experiment: Test C flooded paddy test; assay type: in vivo; settings: Flood
Procedure, shortened: (§1)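 Response scores reflect visual evaluation after 12 to 14 days in the greenhouse, with 0 for no effect and 100 for complete control relative to untreated plants. Treatment was made at the 2-leaf stage in a flooded paddy setting, and a dash denotes no test result.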

[2] = test system: duck salad (Heteranthera limosa); experiment: Test C flooded paddy test; assay type: in vivo; settings: Flood, scale 0 to 100
Procedure, shortened: as §1

rice (Oryza sativa) = experiment: Test C flooded paddy test; assay type: in vivo; settings: Flood, scale 0 to 100
Procedure, shortened: as §1

[3] = test system: umbrella sedge (Cyperus difformis); experiment: Test C flooded paddy test; assay type: in vivo; settings: Flood, scale 0 to 100
Procedure, shortened: as §1

[4] = test system: Italian ryegrass (Lolium multiflorum); experiment: Test C postemergence; assay type: in vivo
Procedure, shortened: (§2)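 Visual injury ratings, 0 (no effect) to 100 (complete control), made 12 to 14 days after treatment by comparison with untreated controls. Greenhouse plants received test chemical in a surfactant-containing non-phytotoxic solvent, either preemergence on planted seeds or postemergence at the 1- to 4-leaf stage.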

[5] = test system: blackgrass (Alopecurus myosuroides); experiment: Test C postemergence; assay type: in vivo; settings: for Plant response rating, Blackgrass: scale 0 to 100
Procedure, shortened: as §2

[6] = test system: canarygrass (Phalaris minor); experiment: Test C postemergence; assay type: in vivo; settings: for Plant response rating, Canarygrass: scale 0 to 100
Procedure, shortened: as §2

[7] = test system: downy brome (Bromus tectorum); experiment: Test C postemergence; assay type: in vivo; settings: for Plant response rating, Bromegrass, Downy: scale 0 to 100
Procedure, shortened: as §2

[8] = test system: green foxtail (Setaria viridis); experiment: Test C postemergence; assay type: in vivo
Procedure, shortened: as §2

[9] = test system: wheat (Triticum aestivum); experiment: Test C postemergence; assay type: in vivo
Procedure, shortened: as §2

wild oat (Avena fatua) = experiment: Test C postemergence; assay type: in vivo
Procedure, shortened: as §2

[10] = test system: windgrass (Apera spica-venti); experiment: Test C postemergence; assay type: in vivo
Procedure, shortened: as §2

[11] = test system: winter barley (Hordeum vulgare); experiment: Test C postemergence; assay type: in vivo; settings: for Plant response rating, Barley: scale 0 to 100
Procedure, shortened: as §2

[12] = 500 g ai/ha, scale 0 to 100 (0 no effect, 100 complete control)

melting point: 107 to 108 °C
Structure (SMILES): CCOC(=O)c1nc(C2CC2)nc(N)c1Br [Compound 1, ethyl 6-amino-5-bromo-2-cyclopropyl-4-pyrimidinecarboxylate]
Plant response rating, Barnyardgrass ([1]; 62 g ai/ha, scale 0 to 100): 0 | Plant response rating, Barnyardgrass ([1]; 125 g ai/ha, scale 0 to 100): 0 | Plant response rating, Barnyardgrass ([1]; 250 g ai/ha, scale 0 to 100): 15 | Plant response rating, Barnyardgrass [1, 12]: 25 | Plant response rating, Ducksalad ([2]; 62 g ai/ha): 0 | Plant response rating, Ducksalad ([2]; 250 g ai/ha): 0 | Plant response rating, Ducksalad ([2]; 500 g ai/ha): 0 | Plant response rating, Rice (rice (Oryza sativa); 62 g ai/ha): 0 | Plant response rating, Rice (rice (Oryza sativa); 125 g ai/ha): 0 | Plant response rating, Rice (rice (Oryza sativa); 250 g ai/ha): 0 | Plant response rating, Rice (rice (Oryza sativa); 500 g ai/ha): 0 | Plant response rating, Sedge, Umbrella ([3]; 62 g ai/ha): 0 | Plant response rating, Sedge, Umbrella ([3]; 250 g ai/ha): 0 | Plant response rating, Sedge, Umbrella ([3]; 500 g ai/ha): 0

melting point: 148 to 150 °C
Structure (SMILES): COC(=O)c1nc(C2CC2)nc(N)c1Br [Compound 2, methyl 6-amino-5-bromo-2-cyclopropyl-4-pyrimidinecarboxylate]
Plant response rating (scale of 0 to 100), Ryegrass, Italian ([4]; 31 g ai/ha): 35 | Plant response rating, Ryegrass, Italian ([4]; 250 g ai/ha, scale 0 to 100): 60 | pest or weed control at 62 g/ha ([4]; Lolium multiflorum, post-emergence, 62 g ai/ha, scale 0 to 100 (0 no effect, 100 complete control), read-out: Ryegrass, Italian plant response rating): 45% | pest or weed control at 125 g/ha ([4]; Lolium multiflorum, post-emergence, 125 g ai/ha, scale 0 to 100 (0 no effect, 100 complete control), read-out: Ryegrass, Italian plant response rating): 60% | Plant response rating (scale of 0 to 100), Blackgrass ([5]; 31 g ai/ha): 60 | Plant response rating, Blackgrass ([5]; 125 g ai/ha): 70 | Plant response rating, Blackgrass ([5]; 250 g ai/ha): 75 | pest or weed control at 62 g/ha ([5]; Alopecurus myosuroides, post-emergence, 62 g ai/ha, scale 0 to 100 (0 no effect, 100 complete control), read-out: Blackgrass plant response rating): 65% | Plant response rating (scale of 0 to 100), Canarygrass ([6]; 31 g ai/ha): 30 | Plant response rating, Canarygrass ([6]; 125 g ai/ha): 40 | Plant response rating, Canarygrass ([6]; 250 g ai/ha): 40 | pest or weed control at 62 g/ha ([6]; Phalaris minor, post-emergence, 62 g ai/ha, scale 0 to 100 (0 no effect, 100 complete control), read-out: Canarygrass plant response rating): 40% | Plant response rating (scale of 0 to 100), Bromegrass, Downy ([7]; 31 g ai/ha): 20 | Plant response rating, Bromegrass, Downy ([7]; 125 g ai/ha): 45 | Plant response rating, Bromegrass, Downy ([7]; 250 g ai/ha): 60 | pest or weed control at 62 g/ha ([7]; Bromus tectorum, post-emergence, 62 g ai/ha, scale 0 to 100 (0 no effect, 100 complete control), read-out: Bromegrass, Downy plant response rating): 35% | Plant response rating (scale of 0 to 100), Foxtail, Green ([8]; 31 g ai/ha): 55 | Plant response rating, Foxtail, Green ([8]; 250 g ai/ha, scale 0 to 100): 70 | pest or weed control at 62 g/ha ([8]; Setaria viridis, post-emergence, 62 g ai/ha, scale 0 to 100 (0 no effect, 100 complete control), read-out: Foxtail, Green plant response rating): 55% | pest or weed control at 125 g/ha ([8]; Setaria viridis, post-emergence, 125 g ai/ha, scale 0 to 100 (0 no effect, 100 complete control), read-out: Foxtail, Green plant response rating): 65% | Plant response rating (scale of 0 to 100), Wheat ([9]; 31 g ai/ha): 20 | Plant response rating, Wheat ([9]; 250 g ai/ha, scale 0 to 100): 65 | plant injury at 62 g/ha ([9]; Triticum aestivum, post-emergence, 62 g ai/ha, scale 0 to 100 (0 no effect, 100 complete control), read-out: Wheat plant response rating): 60% | plant injury at 125 g/ha ([9]; Triticum aestivum, post-emergence, 125 g ai/ha, scale 0 to 100 (0 no effect, 100 complete control), read-out: Wheat plant response rating): 65% | Plant response rating (scale of 0 to 100), Oat, Wild (wild oat (Avena fatua); 31 g ai/ha): 20 | Plant response rating, Oat, Wild (wild oat (Avena fatua); 250 g ai/ha, scale 0 to 100): 60 | pest or weed control at 62 g/ha (wild oat (Avena fatua); Avena fatua, post-emergence, 62 g ai/ha, scale 0 to 100 (0 no effect, 100 complete control), read-out: Oat, Wild plant response rating): 55% | pest or weed control at 125 g/ha (wild oat (Avena fatua); Avena fatua, post-emergence, 125 g ai/ha, scale 0 to 100 (0 no effect, 100 complete control), read-out: Oat, Wild plant response rating): 55% | Plant response rating (scale of 0 to 100), Windgrass ([10]; 31 g ai/ha): 65 | Plant response rating, Windgrass ([10]; 250 g ai/ha, scale 0 to 100): 70 | pest or weed control at 62 g/ha ([10]; Apera spica-venti, post-emergence, 62 g ai/ha, scale 0 to 100 (0 no effect, 100 complete control), read-out: Windgrass plant response rating): 65% | pest or weed control at 125 g/ha ([10]; Apera spica-venti, post-emergence, 125 g ai/ha, scale 0 to 100 (0 no effect, 100 complete control), read-out: Windgrass plant response rating): 70% | Plant response rating (scale of 0 to 100), Barley ([11]; 31 g ai/ha): 0 | Plant response rating, Barley ([11]; 125 g ai/ha): 60 | Plant response rating, Barley ([11]; 250 g ai/ha): 60 | plant injury at 62 g/ha ([11]; Hordeum vulgare, post-emergence, 62 g ai/ha, scale 0 to 100 (0 no effect, 100 complete control), read-out: Barley plant response rating): 35% | Plant response rating, Barnyardgrass ([1]; 62 g ai/ha, scale 0 to 100): 0 | Plant response rating, Barnyardgrass ([1]; 125 g ai/ha, scale 0 to 100): 20 | Plant response rating, Barnyardgrass ([1]; 250 g ai/ha, scale 0 to 100): 45 | Plant response rating, Barnyardgrass [1, 12]: 75 | Plant response rating, Ducksalad ([2]; 62 g ai/ha): 50 | Plant response rating, Ducksalad ([2]; 125 g ai/ha): 70 | Plant response rating, Ducksalad ([2]; 250 g ai/ha): 90 | Plant response rating, Ducksalad ([2]; 500 g ai/ha): 95 | Plant response rating, Rice (rice (Oryza sativa); 62 g ai/ha): 0 | Plant response rating, Rice (rice (Oryza sativa); 125 g ai/ha): 25 | Plant response rating, Rice (rice (Oryza sativa); 250 g ai/ha): 45 | Plant response rating, Rice (rice (Oryza sativa); 500 g ai/ha): 65 | Plant response rating, Sedge, Umbrella ([3]; 62 g ai/ha): 0 | Plant response rating, Sedge, Umbrella ([3]; 125 g ai/ha): 0 | Plant response rating, Sedge, Umbrella ([3]; 250 g ai/ha): 0 | Plant response rating, Sedge, Umbrella ([3]; 500 g ai/ha): 25
